Experimental data taken from patent publication US20190330275A1 (priority 2016, published 2019).
Values joined by “and” are separate entries in the source; they are usually repeats but may differ in a detail not shown here. Identical values can stand only once. “Also recorded” adds a separate entry of the source. Peptide text beside a SMILES is read from it.

Key:
rat α3β4 nAChR = rat α3β4 nAChR (Rattus norvegicus, UniProt P04757+P12392); assay: cell-based
rat α6/α3β4 nAChR = rat α6/α3β4 nAChR (Rattus norvegicus, UniProt P04757+P12392+P43143); assay: cell-based
Sequence of rat α6/α3β4 nAChR (P04757 whole entry, looked up): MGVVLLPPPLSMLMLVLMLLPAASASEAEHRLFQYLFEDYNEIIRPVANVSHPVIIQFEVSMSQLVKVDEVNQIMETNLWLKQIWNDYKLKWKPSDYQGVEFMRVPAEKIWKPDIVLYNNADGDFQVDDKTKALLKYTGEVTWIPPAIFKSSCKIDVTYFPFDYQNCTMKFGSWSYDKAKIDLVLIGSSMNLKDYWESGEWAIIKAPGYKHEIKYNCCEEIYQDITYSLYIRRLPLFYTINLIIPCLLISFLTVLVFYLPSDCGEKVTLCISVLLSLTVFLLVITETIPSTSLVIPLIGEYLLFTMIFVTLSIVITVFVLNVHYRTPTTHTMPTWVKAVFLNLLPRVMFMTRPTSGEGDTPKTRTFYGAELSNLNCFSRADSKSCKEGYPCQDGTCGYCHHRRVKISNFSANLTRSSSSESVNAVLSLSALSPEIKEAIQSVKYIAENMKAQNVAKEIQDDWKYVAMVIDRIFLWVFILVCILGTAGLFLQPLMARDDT
Sequence of rat α6/α3β4 nAChR (P12392 whole entry, looked up): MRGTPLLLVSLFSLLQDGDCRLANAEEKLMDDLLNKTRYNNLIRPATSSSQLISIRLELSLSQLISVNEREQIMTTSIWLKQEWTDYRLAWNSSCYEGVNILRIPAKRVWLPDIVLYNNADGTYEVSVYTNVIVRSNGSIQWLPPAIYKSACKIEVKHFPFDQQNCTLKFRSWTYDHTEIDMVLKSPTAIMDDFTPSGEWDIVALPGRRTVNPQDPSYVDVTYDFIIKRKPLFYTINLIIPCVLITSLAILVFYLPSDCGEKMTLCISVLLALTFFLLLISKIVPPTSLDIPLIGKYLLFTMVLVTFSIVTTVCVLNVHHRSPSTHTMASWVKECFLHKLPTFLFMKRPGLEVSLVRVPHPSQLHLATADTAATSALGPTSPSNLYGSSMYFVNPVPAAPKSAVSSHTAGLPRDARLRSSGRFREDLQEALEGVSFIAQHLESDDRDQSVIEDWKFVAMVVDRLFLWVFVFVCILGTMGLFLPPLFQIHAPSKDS
Sequence of rat α6/α3β4 nAChR (P43143 whole entry, looked up): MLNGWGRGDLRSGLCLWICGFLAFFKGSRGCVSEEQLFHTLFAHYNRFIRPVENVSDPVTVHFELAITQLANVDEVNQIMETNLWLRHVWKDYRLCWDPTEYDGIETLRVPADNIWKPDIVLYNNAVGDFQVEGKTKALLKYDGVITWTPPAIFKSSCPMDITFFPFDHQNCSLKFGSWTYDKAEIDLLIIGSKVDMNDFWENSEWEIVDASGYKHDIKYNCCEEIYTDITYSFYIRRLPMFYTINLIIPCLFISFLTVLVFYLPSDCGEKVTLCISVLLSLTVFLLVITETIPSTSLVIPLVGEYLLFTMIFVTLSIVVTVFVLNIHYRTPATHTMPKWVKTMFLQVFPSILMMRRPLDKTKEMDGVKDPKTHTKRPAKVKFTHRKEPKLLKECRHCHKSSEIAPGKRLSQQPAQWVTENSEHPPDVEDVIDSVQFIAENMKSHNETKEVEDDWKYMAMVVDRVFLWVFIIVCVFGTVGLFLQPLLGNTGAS

[1] = α6/α3β4 IC50 (half-blocking dose)

Sequence of rat α3β4 nAChR (P04757 26-499 limits assumed): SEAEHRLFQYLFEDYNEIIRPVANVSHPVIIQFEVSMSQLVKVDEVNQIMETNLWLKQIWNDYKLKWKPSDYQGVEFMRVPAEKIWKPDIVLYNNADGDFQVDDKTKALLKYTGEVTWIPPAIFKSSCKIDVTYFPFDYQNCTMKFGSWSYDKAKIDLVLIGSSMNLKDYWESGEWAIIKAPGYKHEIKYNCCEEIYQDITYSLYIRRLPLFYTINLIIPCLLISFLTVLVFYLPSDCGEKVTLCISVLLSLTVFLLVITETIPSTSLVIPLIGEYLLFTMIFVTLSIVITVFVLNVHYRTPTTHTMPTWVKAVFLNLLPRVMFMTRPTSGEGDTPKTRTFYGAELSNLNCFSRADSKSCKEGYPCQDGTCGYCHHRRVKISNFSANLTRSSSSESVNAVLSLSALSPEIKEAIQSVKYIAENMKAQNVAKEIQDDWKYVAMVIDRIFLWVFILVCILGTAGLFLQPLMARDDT
Sequence of rat α3β4 nAChR (P12392 21-495 limits assumed): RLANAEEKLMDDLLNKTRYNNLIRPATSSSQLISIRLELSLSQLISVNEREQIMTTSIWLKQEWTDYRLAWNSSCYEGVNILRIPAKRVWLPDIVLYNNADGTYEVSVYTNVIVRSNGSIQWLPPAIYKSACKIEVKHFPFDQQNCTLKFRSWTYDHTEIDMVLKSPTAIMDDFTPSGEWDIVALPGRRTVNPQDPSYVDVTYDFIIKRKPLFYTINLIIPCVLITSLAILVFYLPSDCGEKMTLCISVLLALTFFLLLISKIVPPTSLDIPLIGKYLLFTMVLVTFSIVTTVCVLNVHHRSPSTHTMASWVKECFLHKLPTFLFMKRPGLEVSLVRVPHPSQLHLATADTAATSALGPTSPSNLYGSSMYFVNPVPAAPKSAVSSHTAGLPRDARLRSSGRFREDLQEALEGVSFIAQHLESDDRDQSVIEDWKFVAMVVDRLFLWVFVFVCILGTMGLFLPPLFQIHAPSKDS

Compound	α3β4 IC50 ratio (rat α3β4 nAChR)	IC50 (rat α3β4 nAChR; α3β4 IC50 (half-blocking dose)) [nM]	IC50 ratio of α6/α3β4 vs. α3β4 (Discrimination) (rat α6/α3β4 nAChR)	α6/α3β4 IC50 ratio (rat α6/α3β4 nAChR)	IC50 (rat α6/α3β4 nAChR; [1]) [nM]	binding (blocking) activity to α3β4 nAChR compared with wild type TxID (rat α3β4 nAChR)	binding (blocking) activity to α6/α3β4 nAChR compared with wild type TxID (rat α6/α3β4 nAChR)	also measured
CSCC[C@@H]1NC(=O)[C@H](C)NC(=O)[C@H](CO)NC(=O)[C@@H]2CSSC[C@H](NC(=O)CN)C(=O)N[C@@H](CSSC[C@@H](C(N)=O)NC(=O)[C@H](Cc3ccc(O)cc3)NC(=O)[C@@H]3CCCN3C(=O)[C@H](CO)NC1=O)C(=O)N[C@@H](CO)C(=O)N[C@@H](Cc1c[nH]cn1)C(=O)N1CCC[C@H]1C(=O)N[C@@H](C(C)C)C(=O)N2 [TxID[I14Y]] (HELM PEPTIDE1{G.C.C.S.H.P.V.C.S.A.M.S.P.Y.C.[am]}$PEPTIDE1,PEPTIDE1,2:R3-8:R3|PEPTIDE1,PEPTIDE1,3:R3-15:R3$$$V2.0)	2.7	10	3.9	1.1	38.7	–	–	–
CC[C@H](C)[C@@H]1NC(=O)[C@@H]2CCCN2C(=O)[C@H](CO)NC(=O)[C@H](Cc2c[nH]cn2)NC(=O)[C@H](C)NC(=O)[C@H](CO)NC(=O)[C@@H]2CSSC[C@H](NC(=O)CN)C(=O)N[C@@H](CSSC[C@@H](C(N)=O)NC1=O)C(=O)N[C@@H](CO)C(=O)N[C@@H](Cc1c[nH]cn1)C(=O)N1CCC[C@H]1C(=O)N[C@@H](C(C)C)C(=O)N2 [TxID[M11H]] (HELM PEPTIDE1{G.C.C.S.H.P.V.C.S.A.H.S.P.I.C.[am]}$PEPTIDE1,PEPTIDE1,2:R3-8:R3|PEPTIDE1,PEPTIDE1,3:R3-15:R3$$$V2.0)	–	> 10000	–	103	3490	–	–	blocking effect on the current of rat α3β4 nAChRs (rat α3β4 nAChR): no blocking effects; IC50 (rat α6/α3β4 nAChR; α6/α3β4 IC50): 1000 to 10000 nM
CC[C@H](C)[C@@H]1NC(=O)[C@@H]2CCCN2C(=O)[C@H](CO)NC(=O)[C@H](CCSC)NC(=O)[C@H](C)NC(=O)[C@H](CO)NC(=O)[C@@H]2CSSC[C@H](NC(=O)CN)C(=O)N[C@@H](CSSC[C@@H](C(N)=O)NC1=O)C(=O)N[C@@H](CO)C(=O)N[C@@H](Cc1c[nH]cn1)C(=O)N[C@@H](C)C(=O)N[C@@H](C(C)C)C(=O)N2 [TxID[P6A]] (HELM PEPTIDE1{G.C.C.S.H.A.V.C.S.A.M.S.P.I.C.[am]}$PEPTIDE1,PEPTIDE1,2:R3-8:R3|PEPTIDE1,PEPTIDE1,3:R3-15:R3$$$V2.0)	–	> 10000	–	–	> 10000	–	–	–
CC[C@H](C)[C@@H]1NC(=O)[C@H](C)NC(=O)[C@H](CO)NC(=O)[C@H](CCSC)NC(=O)[C@H](C)NC(=O)[C@H](CO)NC(=O)[C@@H]2CSSC[C@H](NC(=O)CN)C(=O)N[C@@H](CSSC[C@@H](C(N)=O)NC1=O)C(=O)N[C@@H](CO)C(=O)N[C@@H](Cc1c[nH]cn1)C(=O)N1CCC[C@H]1C(=O)N[C@@H](C(C)C)C(=O)N2 [TxID[P13A]] (HELM PEPTIDE1{G.C.C.S.H.P.V.C.S.A.M.S.A.I.C.[am]}$PEPTIDE1,PEPTIDE1,2:R3-8:R3|PEPTIDE1,PEPTIDE1,3:R3-15:R3$$$V2.0)	–	> 10000	–	–	> 10000	–	–	–
CC[C@H](C)[C@@H]1NC(=O)[C@@H]2CCCN2C(=O)[C@H](CO)NC(=O)[C@H](CCSC)NC(=O)[C@H](C)NC(=O)[C@H](CO)NC(=O)[C@@H]2CSSC[C@H](NC(=O)CN)C(=O)N[C@@H](CSSC[C@@H](C(N)=O)NC1=O)C(=O)N[C@@H](C)C(=O)N[C@@H](Cc1c[nH]cn1)C(=O)N1CCC[C@H]1C(=O)N[C@@H](C(C)C)C(=O)N2 [TxID[S4A]] (HELM PEPTIDE1{G.C.C.A.H.P.V.C.S.A.M.S.P.I.C.[am]}$PEPTIDE1,PEPTIDE1,2:R3-8:R3|PEPTIDE1,PEPTIDE1,3:R3-15:R3$$$V2.0)	3.0	–	5.9	1.9	–	–	–	–
CC[C@H](C)[C@@H]1NC(=O)[C@@H]2CCCN2C(=O)[C@H](CO)NC(=O)[C@H](CC(C)C)NC(=O)[C@H](C)NC(=O)[C@H](C)NC(=O)[C@@H]2CSSC[C@H](NC(=O)CN)C(=O)N[C@@H](CSSC[C@@H](C(N)=O)NC1=O)C(=O)N[C@@H](CO)C(=O)N[C@@H](Cc1c[nH]cn1)C(=O)N1CCC[C@H]1C(=O)N[C@@H](C(C)C)C(=O)N2 [TxID[S9A, M11I]] (HELM PEPTIDE1{G.C.C.S.H.P.V.C.A.A.L.S.P.I.C.[am]}$PEPTIDE1,PEPTIDE1,2:R3-8:R3|PEPTIDE1,PEPTIDE1,3:R3-15:R3$$$V2.0)	8.4	–	0.3	3.0	–	–	–	–
CC[C@H](C)[C@@H]1NC(=O)[C@@H]2CCCN2C(=O)[C@H](CO)NC(=O)[C@H](CCSC)NC(=O)[C@H](C)NC(=O)[C@H](C)NC(=O)[C@@H]2CSSC[C@H](NC(=O)CN)C(=O)N[C@@H](CSSC[C@@H](C(N)=O)NC1=O)C(=O)N[C@@H](CO)C(=O)N[C@@H](Cc1c[nH]cn1)C(=O)N1CCC[C@H]1C(=O)N[C@@H](C(C)C)C(=O)N2 [TxID[S9A]] (HELM PEPTIDE1{G.C.C.S.H.P.V.C.A.A.M.S.P.I.C.[am]}$PEPTIDE1,PEPTIDE1,2:R3-8:R3|PEPTIDE1,PEPTIDE1,3:R3-15:R3$$$V2.0)	–	–	–	–	–	no effect on the blocking activity	–	current blocked (rat α3β4 nAChR): 98% and 75%; blocking activity to α6β4* nAChRs subtype (rat α6/α3β4 nAChR): completely lost the blocking activity; current blocked (rat α6/α3β4 nAChR): 26%
CC[C@@H]1NC(=O)[C@@H]2CSSC[C@H](NC(=O)CN)C(=O)N[C@@H](CSSC[C@@H](C(N)=O)NC(=O)[C@H]([C@@H](C)CC)NC(=O)[C@@H]3CCCN3C(=O)[C@H](CO)NC(=O)[C@H](CCSC)NC(=O)[C@H](C)NC1=O)C(=O)N[C@@H](CO)C(=O)N[C@@H](Cc1c[nH]cn1)C(=O)N1CCC[C@H]1C(=O)N[C@@H](C(C)C)C(=O)N2 [TxID[S9Abu], GCCSHPVCBAMSPIC*] (HELM PEPTIDE1{G.C.C.S.H.P.V.C.[Abu].A.M.S.P.I.C.[am]}$PEPTIDE1,PEPTIDE1,2:R3-8:R3|PEPTIDE1,PEPTIDE1,3:R3-15:R3$$$V2.0)	–	–	–	–	–	not significantly different from the activity of the wild type TxID	not significantly different from the activity of the wild type TxID	elution after blocking the α3β4 nAChR current (rat α3β4 nAChR): very slow
CC[C@H](C)[C@@H]1NC(=O)[C@@H]2CCCN2C(=O)[C@H](CO)NC(=O)[C@H](CCSC)NC(=O)[C@H](C)NC(=O)[C@H](CCC(=O)O)NC(=O)[C@@H]2CSSC[C@H](NC(=O)CN)C(=O)N[C@@H](CSSC[C@@H](C(N)=O)NC1=O)C(=O)N[C@@H](CO)C(=O)N[C@@H](Cc1c[nH]cn1)C(=O)N1CCC[C@H]1C(=O)N[C@@H](C(C)C)C(=O)N2 [TxID[S9E]] (HELM PEPTIDE1{G.C.C.S.H.P.V.C.E.A.M.S.P.I.C.[am]}$PEPTIDE1,PEPTIDE1,2:R3-8:R3|PEPTIDE1,PEPTIDE1,3:R3-15:R3$$$V2.0)	–	–	–	–	–	weak	completely lost; also recorded: completely loses the binding activity	blocking effect on the current of rat α6/α3β4 nAChRs (rat α6/α3β4 nAChR): no blocking activity; also recorded: no blocking effect
CC[C@H](C)[C@@H]1NC(=O)[C@@H]2CCCN2C(=O)[C@H](CO)NC(=O)[C@H](CCSC)NC(=O)[C@H](C)NC(=O)[C@H](Cc2ccccc2)NC(=O)[C@@H]2CSSC[C@H](NC(=O)CN)C(=O)N[C@@H](CSSC[C@@H](C(N)=O)NC1=O)C(=O)N[C@@H](CO)C(=O)N[C@@H](Cc1c[nH]cn1)C(=O)N1CCC[C@H]1C(=O)N[C@@H](C(C)C)C(=O)N2 [TxID[S9F]] (HELM PEPTIDE1{G.C.C.S.H.P.V.C.F.A.M.S.P.I.C.[am]}$PEPTIDE1,PEPTIDE1,2:R3-8:R3|PEPTIDE1,PEPTIDE1,3:R3-15:R3$$$V2.0)	3.8	–	0.5	0.2	–	not significantly different from the activity of the wild type TxID	not significantly different from the activity of the wild type TxID	elution after blocking the α3β4 nAChR current (rat α3β4 nAChR): very slow; elution rate after blocking α6/α3β4 nAChR current (rat α6/α3β4 nAChR): significantly slower than those of other polypeptides
CC[C@H](C)[C@@H]1NC(=O)[C@@H]2CCCN2C(=O)[C@H](CO)NC(=O)[C@H](CCSC)NC(=O)[C@H](C)NC(=O)[C@H](Cc2ccccc2)NC(=O)[C@@H]2CSSC[C@H](NC(=O)CN)C(=O)N[C@@H](CSSC[C@@H](C(N)=O)NC1=O)C(=O)N[C@@H](CO)C(=O)N[C@@H](Cc1cnc[nH]1)C(=O)N1CCC[C@H]1C(=O)N[C@@H](C(C)C)C(=O)N2 [TxID[S9F]] (HELM PEPTIDE1{G.C.C.S.H.P.V.C.F.A.M.S.P.I.C.[am]}$PEPTIDE1,PEPTIDE1,2:R3-8:R3|PEPTIDE1,PEPTIDE1,3:R3-15:R3$$$V2.0)	–	13.9	–	–	7.11	–	–	IC50 (rat α3β4 nAChR; α3β4 IC50): 10.7 nM; IC50 (rat α6/α3β4 nAChR; α6/α3β4 IC50): 10.2 nM
CC[C@H](C)[C@@H]1NC(=O)[C@@H]2CCCN2C(=O)[C@H](CO)NC(=O)[C@H](CCSC)NC(=O)[C@H](C)NC(=O)[C@H](Cc2c[nH]cn2)NC(=O)[C@@H]2CSSC[C@H](NC(=O)CN)C(=O)N[C@@H](CSSC[C@@H](C(N)=O)NC1=O)C(=O)N[C@@H](CO)C(=O)N[C@@H](Cc1c[nH]cn1)C(=O)N1CCC[C@H]1C(=O)N[C@@H](C(C)C)C(=O)N2 [TxID[S9H]] (HELM PEPTIDE1{G.C.C.S.H.P.V.C.H.A.M.S.P.I.C.[am]}$PEPTIDE1,PEPTIDE1,2:R3-8:R3|PEPTIDE1,PEPTIDE1,3:R3-15:R3$$$V2.0)	0.7	–	5.6	0.4	–	not significantly different from the activity of the wild type TxID	not significantly different from the activity of the wild type TxID	blocking of rat α3β4 nAChRs current (rat α3β4 nAChR): strong blocking activities; current after 2 min of elution (rat α3β4 nAChR): ~0 nA; elution after blocking the α3β4 nAChR current (rat α3β4 nAChR): very slow
CC[C@H](C)[C@@H]1NC(=O)[C@@H]2CCCN2C(=O)[C@H](CO)NC(=O)[C@H](CCSC)NC(=O)[C@H](C)NC(=O)[C@H](Cc2cnc[nH]2)NC(=O)[C@@H]2CSSC[C@H](NC(=O)CN)C(=O)N[C@@H](CSSC[C@@H](C(N)=O)NC1=O)C(=O)N[C@@H](CO)C(=O)N[C@@H](Cc1cnc[nH]1)C(=O)N1CCC[C@H]1C(=O)N[C@@H](C(C)C)C(=O)N2 [TxID[S9H]] (HELM PEPTIDE1{G.C.C.S.H.P.V.C.H.A.M.S.P.I.C.[am]}$PEPTIDE1,PEPTIDE1,2:R3-8:R3|PEPTIDE1,PEPTIDE1,3:R3-15:R3$$$V2.0)	–	2.61	–	–	14.7	–	–	IC50 (rat α3β4 nAChR; α3β4 IC50): 1.96 nM; IC50 (rat α6/α3β4 nAChR; α6/α3β4 IC50): 18.7 nM
